Test results reported in the C3SDB collision cross section collection.

Assays:
[1] = instrument: TW, calibrated with phosphatidylcholines (ESI+) and phosphatidylethanolamines (ESI-)
[2] = instrument: DT, single field, calibrated with Agilent tune mix (Agilent)
[3] = [M+2Na-H]+; instrument: DT; stepped-field

collision cross section (N2) ([1]; [M+Na]+) [Å²]	collision cross section (N2) ([1]; [M+H]+) [Å²]	collision cross section (N2) ([1]; [M-H]-) [Å²]	also measured	SMILES
277.8				CCCCC/C=C\C/C=C\C/C=C\C/C=C\CCCC(=O)OC[C@H](COP(=O)(O)OC[C@@H](O)CO)OC(=O)CCCCCCC/C=C\CCCCCC [PG(36:5)]
			collision cross section (N2) ([1]; [M+H-H2O]+): 296.4 Å²	CCCCCCCC/C=C\CCCCCCCC(=O)OC[C@H](COP(=O)(O)O[C@H]1C(O)C(O)C(O)[C@@H](OP(=O)(O)O)C1O)OC(=O)CCCCCCCCCCCCCCCCC (stereo partly drawn) [PIP(36:1)]
291.1	290			CCCCC/C=C\C/C=C\CCCCCCCCCC(=O)O[C@H](CO/C=C\CCCCCCCCCCCCCCCCCC)COP(=O)(O)OCCN [PE(p40:2)]
292.7		283	collision cross section (N2) ([2]; [M+NH4]+): 298.9 Å²; collision cross section (N2) ([2]; [M+Na]+): 295.2 Å²; collision cross section (N2) ([2]; [M-H]-): 283.4 Å²	CCCCC/C=C\C/C=C\C/C=C\C/C=C\CCCCCC(=O)OC[C@H](COP(=O)(O)OC[C@@H](O)CO)OC(=O)CCCCCCC/C=C\CCCCCCCC [PG(40:5)]
275.5		264.6		CC/C=C\C/C=C\C/C=C\C/C=C\CCCCC(=O)O[C@H](CO/C=C\CCCCCCCCCCCCCCCC)COP(=O)(O)OCCN [PE(p36:4)]
	297.1			CCCCCCCCCCCCC=CC[C@@H](O)[C@H](COP(=O)([O-])OCC[N+](C)(C)C)NC(=O)CCCCCCCCCCCCCCCCCCCCC [SM(d18:1/22:0)]
		297.1	collision cross section (N2) ([2]; [M+Na]+): 307.1 Å²; collision cross section (N2) ([2]; [M-H]-): 298.2 Å²	CCCCC/C=C\C/C=C\CCCCCCCCCCCC(=O)O[C@H](COC(=O)CCCCCCC/C=C\C/C=C\CCCCC)COP(=O)(O)O[C@H]1C(O)C(O)C(O)[C@@H](O)C1O (stereo partly drawn) [PI(40:4)]
298.8				CCCCC/C=C\C/C=C\C/C=C\C/C=C\CCCC(=O)O[C@H](COC(=O)CCCCCC/C=C\C/C=C\C/C=C\CCCCC)COP(=O)(O)O[C@H]1C(O)C(O)C(O)[C@@H](O)C1O (stereo partly drawn) [PI(40:7)]
	261.3			CCCCCCCCCCCCC=CC[C@@H](O)[C@H](CO)NC(=O)CCCCCCCCCCCCCCCCC [Cer(d18:0/18:1)]
	255.1			CCCCCCCCCCCCCCCC(=O)N[C@@H](CO)[C@H](O)CCCCCCCCCCCCCCC [Cer(d18:0/16:0)]
	291.2		collision cross section (N2) ([2]; [M+HCOO]-): 294.4 Å²; collision cross section (N2) ([2]; [M+Na]+): 298.5 Å²; collision cross section (N2) ([1]; [M+CH3COO]-): 296.3 Å²	CCCCC/C=C\C/C=C\C/C=C\CCCCC(=O)OC[C@H](COP(=O)([O-])OCC[N+](C)(C)C)OC(=O)CCCCCCCCC/C=C\CCCCCCCC [PC(38:4)]
296.8				CC/C=C\C/C=C\C/C=C\C/C=C\CCCCC(=O)OC[C@H](COP(=O)(O)O[C@H]1C(O)C(O)C(O)[C@@H](O)C1O)OC(=O)CCCCC/C=C\C/C=C\C/C=C\C/C=C\CCCCC (stereo partly drawn) [PI(40:8)]
			collision cross section (N2) ([1]; [M+H-H2O]+): 300.5 Å²	CCCCC/C=C\C/C=C\C/C=C\C/C=C\CCCC(=O)O[C@H](COC(=O)CCCCCCCCCCCCCCCCC)COP(=O)(O)O[C@H]1C(O)C(O)C(O)[C@@H](OP(=O)(O)O)C1O (stereo partly drawn) [PIP(38:4)]
	273.7	266.7	collision cross section (N2) ([2]; [M+H]+): 274.9 Å²; collision cross section (N2) ([2]; [M+Na]+): 279.9 Å²; collision cross section (N2) ([2]; [M-H]-): 266.1 Å²	CCCC/C=C\C/C=C\CCCCCCCC(=O)OC[C@H](COP(=O)(O)OCCN)OC(=O)CCCCCCC/C=C\CCCCCCCCC [PE(36:3)]
	284.5			CCCCCCCCCCCCC=CC[C@@H](O)[C@H](CO)NC(=O)CCCCCCCCCCCCCCCCCCCCCCCCC [Cer(d18:0/26:1)]
214.7	215.6	204.7		CCCCCCCCCCCCCC/C=C\OC[C@@H](O)COP(=O)([O-])OCC[NH3+] [LPE(p16:0)]
285.9		276.5	collision cross section (N2) ([2]; [M+H]+): 292.1 Å²; collision cross section (N2) ([2]; [M+Na]+): 288.8 Å²	CC/C=C\C/C=C\C/C=C\C/C=C\CCCCC(=O)OC[C@H](COP(=O)(O)OC[C@@H](O)CO)OC(=O)CCCCCCCCC/C=C\CCCCCCCC [PG(38:5)]
		260.9		CC/C=C\C/C=C\C/C=C\C/C=C\C/C=C\C/C=C\CCC(=O)O[C@H](COC(=O)CCCCCCCCCCCCCCC)COP(=O)(O)O [PA(38:6)]
281	283			CC/C=C\C/C=C\C/C=C\C/C=C\C/C=C\C/C=C\CCC(=O)O[C@H](CO/C=C\CCCCCC/C=C\CCCCCCCC)COP(=O)(O)OCCN [PE(p40:7)]
	293.7		collision cross section (N2) ([2]; [M+H]+): 297 Å²	CCCCCC/C=C\CCCCCCCCCCCC(=O)O[C@H](COC(=O)CCCCCCCCC/C=C\CCCCCC)COP(=O)([O-])OCC[N+](C)(C)C [PC(38:2)]

collision cross section (N2) ([1]; [M+Na]+) [Å²]	collision cross section (N2) ([1]; [M+H]+) [Å²]	collision cross section (N2) ([1]; [M-H]-) [Å²]	also measured	SMILES
	293.3		collision cross section (N2) ([2]; [M+H]+): 296.2 Å²	CCCCC/C=C\C/C=C\C/C=C\C/C=C\CCCCCC(=O)O[C@H](COC(=O)CCCCCCC/C=C\C/C=C\CCCCC)COP(=O)([O-])OCC[N+](C)(C)C [PC(40:6)]
	279.6			CCCCCCCCCCCCCCCCCCCCCCCC(=O)N[C@@H](CO)[C@H](O)CCCCCCCCCCCCCCC [Cer(d18:0/24:0)]
298.6				CCCCCCCCCCCCCCCCCCC(=O)OC[C@H](COP(=O)(O)O[C@H]1C(O)C(O)C(O)[C@@H](O)C1O)OC(=O)CCCCCCCCCCCCCCCC (stereo partly drawn) [PI(36:0)]
			collision cross section (N2) ([1]; [M+H-H2O]+): 292.7 Å²	CCCCC/C=C\C/C=C\CCCCCCCC(=O)O[C@H](COC(=O)CCCCCCC/C=C\CCCCCCCC)COP(=O)(O)O[C@H]1C(O)C(O)C(O)[C@@H](OP(=O)(O)O)C1O (stereo partly drawn) [PIP(36:3)]
	261.2	249.7		CCCCCCCCCCCCC=CC[C@@H](O)[C@H](CO)NC(=O)CCCCCCCCCCCCCCCCC [Cer(d18:1/18:0)]
286.8	283.5	274.4		CC/C=C\C/C=C\C/C=C\C/C=C\C/C=C\C/C=C\CCC(=O)O[C@H](CO/C=C\CCCCCCCCCCCCCCCC)COP(=O)(O)OCCN [PE(p40:6)]
	274.1			CCCCCCCCCCCCCCCCCCCCCC(=O)N[C@@H](CO)[C@H](O)CCCCCCCCCCCCCCC [Cer(d18:0/22:0)]
		261.6	collision cross section (N2) ([2]; [M+NH4]+): 277.2 Å²	CC/C=C\C/C=C\C/C=C\C/C=C\CCCCC(=O)OC[C@H](COP(=O)(O)O)OC(=O)CCCCCCCCC/C=C\CCCCCCCC [PA(38:5)]
		253.4	collision cross section (N2) ([2]; [M+H]+): 267.5 Å²; collision cross section (N2) ([2]; [M+NH4]+): 267.8 Å²; collision cross section (N2) ([2]; [M+Na]+): 266.5 Å²	CCCCC/C=C\C/C=C\CCCCCCCC(=O)O[C@H](COC(=O)CCCCCCCCCCCCCCC)COP(=O)(O)O [PA(34:2)]
		243.7		CCCCCCCCCCCCC=CC[C@@H](O)[C@H](CO)NC(=O)CCCCCCCCCCCCCCC [Cer(d18:1/16:0)]
		283.7	collision cross section (N2) ([2]; [M+H]+): 294.9 Å²; collision cross section (N2) ([2]; [M+NH4]+): 295.8 Å²; collision cross section (N2) ([2]; [M+Na]+): 292.4 Å²; collision cross section (N2) ([2]; [M-H]-): 283.7 Å²	CCCCCCCCCC/C=C\CCCCCCCCCC(=O)O[C@H](COC(=O)CCCCCCCCCCC)COP(=O)(O)O[C@H]1C(O)C(O)C(O)[C@@H](O)C1O (stereo partly drawn) [PI(34:1)]
216.5	217.2	208.9		CCCCCCCC/C=C\CCCCCC/C=C\OC[C@@H](O)COP(=O)([O-])OCC[NH3+] [LPE(p18:1)]
	287.9		collision cross section (N2) ([2]; [M-H]-): 277.1 Å²	CCCCC/C=C\C/C=C\C/C=C\CCCCCCC(=O)O[C@H](CO/C=C\CCCCCCCCCCCCCCCCCC)COP(=O)(O)OCCN [PE(p40:3)]
	284.4			CCCCCCCCCCCCC=CC[C@@H](O)[C@H](CO)NC(=O)CCCCCCCCCCCCCCCCCCCCCCCCC [Cer(d18:1/26:0)]
	284	272.7		CCCCC/C=C\C/C=C\CCCCCCCCCCCC(=O)O[C@H](CO/C=C\CCCCCCCCCCCCCC)COP(=O)(O)OCCN [PE(p38:2)]
			collision cross section (N2) ([1]; [M+H-H2O]+): 263.5 Å²	CCCCC/C=C\C/C=C\CCCCCCCCCCCC(=O)O[C@@H](CO)COC(=O)CCCCCCCCCCCCC [DG(18:1/18:1)]
	291.7			CCCCC/C=C\C/C=C\C/C=C\C/C=C\CCCCCC(=O)O[C@H](COC(=O)CCCCCC/C=C\C/C=C\C/C=C\CCCCC)COP(=O)(O)OCCN [PE(42:7)]
	283.2			CCCCCCCCCCCCC=CC[C@@H](O)[C@H](COP(=O)([O-])OCC[N+](C)(C)C)NC(=O)CC=CCCCCCCCCCCCCCC [SM(d18:1/18:1)]
		283.7		CCCCC/C=C\C/C=C\C/C=C\CCCCCCC(=O)OC[C@H](COP(=O)(O)OC[C@@H](O)CO)OC(=O)CCCCCCCCC/C=C\CCCCCCCC [PG(40:4)]
			collision cross section (N2) [3]: 270 Å²	CCCCC/C=C\C/C=C\CCCCCCCCCCCC(=O)O[C@H](COC(=O)CCCCCCCCCCCC)COP(=O)(O)O [PA(35:02)]
